The values that follow come from US8536160B2, “Azaheterocyclyl derivatives of androstanes and androstenes as medicaments for cardiovascular disorders” (priority 2006, dated 2013).

Data set [1] has as its target Dog Kidney Na+, K+-ATPase (Canis lupus familiaris, UniProt P50997). Description: Inhibition of the enzymatic activity of purified Na+,K+-ATPase (hydrolysis of 32P-ATP). The class given is biochemical.
In a further data set the test system is anesthetized guinea-pig. The data set can be described thus: Inotropic effect and lethal dose, slow intravenous infusion in anesthetized guinea-pig. The class given is in vivo. Further details: Maximum dose infused: unit not given here. The following applies: for Emax / ED80 / ED (max): Cavia porcellus, iv, 1.5 h; for Emax: maximum increase in contractile force, read-out: Emax % increase in +dP/dTmax; for ED80: read-out: ED80 (inotropic potency, dose increasing +dP/dTmax by 80%); for ED (max): read-out: EDmax (dose inducing maximum positive inotropic effect); for % decrease from Emax after 20 min from the end of the infusion: duration of the inotropic effect; for Maximum dose infused: maximum dose infused in the survived animals.

The mark [2] stands for this setting: read-out: Na+, K+-ATPase Inhibition IC50.
[3] abbreviates: slow i.v. infusion over 90 minutes, anesthetized guinea-pig.
Where [4] appears, read: slow i.v. infusion over 90 minutes.
Setting [5] is: dog kidney enzyme, hydrolysis of 32P-ATP in presence and absence of compound, read-out: Na+, K+-ATPase Inhibition IC50.

Where a name gives a salt, the structure may show the parent alone. Read-outs that look alike come from different tables or passages of the source.

Protocol for anesthetized guinea-pig: The inotropic activity is shown as maximum increase in contractile force (Emax measured as +dP/dTmax), dose inducing maximum positive inotropic effect (EDmax), inotropic potency (ED80, dose increasing +dP/dTmax by 80%); the toxicity, as the ratio between lethal dose and inotropic potency, or safety ratio, (calculated for the died animals); the maximum dose infused in the survived animals; the duration of the inotropic effect as the decrease of the effect from the EDmax measured 20 minutes after the end of the infusion.

As usually defined, the IC50 is the concentration that inhibits the measured activity by half. `CC12CCC3C(CC(O)C4CC(=NOC5CCNC5)CCC43C)C1CCC2=O` (single isomer, unassigned) [I-ao, hydrochloride]: the IC50 in data set [1] (Na+, K+-ATPase Inhibition IC50) was found to be 2300 nM.
“3α-[2-(Pyrrolidin-3-(R)-yl)-(Z)-vinyl]androstane-6,7-dione formate [I-df]”: the IC50 in data set [1] (setting [2]) was 360 nM.
As to `CON=C1CC2C3CCC(=O)C3(C)CCC2C2(C)CCC(=NOC3CCNC3)CC12` (single isomer, unassigned) [I-bd, hydrochloride], in data set [1] (Na+, K+-ATPase Inhibition IC50), the half-maximal inhibitory concentration (IC50) was 18 nM.
Turning to “3β-(2-(R,S)-piperazinylcarbonyloxy)androstane-6,7-dione dihydrochloride [I-da]”, the IC50 in data set [1] (setting [2]) was determined as 68000 nM.
As for `CN1CC[C@H](O/N=C2\CC[C@@]3(C)C(C2)[C@@H](CO)C(=O)[C@@H]2[C@@H]3CC[C@]3(C)C(=O)CC[C@@H]23)C1` (stereo partly drawn) [I-cu, (E,Z) 3-[3′-(S)-(1-Methyl)-pyrrolidinyl]oxyimino-6α-hydroxymethylandrostane-7,17-dione fumarate], the IC50 in data set [1] (setting [2]) came out at 2600 nM.
Consider `CC1CC2CC(=NOC3CCNC3)CCC2(C)C2CCC3(C)C(=O)CCC3C12` [I-cn, (Z) 3-[3′-(R)-Pyrrolidinyl]oxyimino-7β-methylandrostane-17-one hydrochloride], for which the midpoint of inhibition in data set [1] (Na+, K+-ATPase Inhibition IC50), the IC50, lay at 340 nM.
For `C[C@H]1O[C@@H](O[C@H]2[C@@H](O)C[C@H](O[C@H]3[C@@H](O)C[C@H](O[C@H]4CC[C@@]5(C)[C@H](CC[C@@H]6[C@@H]5C[C@@H](O)[C@]5(C)[C@@H](C7=CC(=O)OC7)CC[C@]65O)C4)O[C@@H]3C)O[C@@H]2C)C[C@H](O)[C@@H]1O` [digoxin, reference compound], in the data set with anesthetized guinea-pig (setting [3]), the Emax worked out at 158%, the ED80 is 0.29 µmol/kg and the ED (max) was 0.65 µmol/kg. For the same compound, the “% decrease from Emax after 20 min from the end of the infusion” value with anesthetized guinea-pig (anesthetized guinea-pig) stood at 100%. This compound had a Maximum dose infused in the data set on anesthetized guinea-pig (setting [4]) of 1.16.
In data set [1] (Na+, K+-ATPase Inhibition IC50), `CC12CCC3C(C1CCC2=O)C1(CC1)CC1CC(=NOC2CCNC2)CCC13C` (mixture of isomers) [I-co, (Z,E) 3-(3′-(R)-Pyrrolidinyloxyimino)-7-(spirocyclopropane)androstane-17-one hydrochloride] yielded an IC50 of 24 nM.
Turning to `C=C1C[C@H]2[C@@H]3CCC(=O)[C@@]3(C)CC[C@@H]2[C@@]2(C)CC/C(=N/O[C@H]3CCN(C)C3)C[C@]12O` [I-bn, (Z) 3-[3′-(S)-(1-Methyl)pyrrolidinyl]oxyimino)-5α-hydroxy-6-methyleneandrostane-17-one fumarate], in data set [1] (Na+, K+-ATPase Inhibition IC50), the IC50 stood at 95000 nM.
Turning to `CON=C1CC2C3CCC(=O)C3(C)CCC2C2(C)CCC(=NOC3CCN(C)C3)CC12` (mixture of isomers) [I-bg, (E,Z) 3-[3′-(R)-(1-Methyl)pyrrolidinyl]oxyimino-(E)-6-methoxyiminoandrostane-17-one hydrochloride], the IC50 in data set [1] (setting [5]) turned out to be 5700 nM.
Consider `CON=C1CC2C3CCC(=O)C3(C)CCC2C2(C)CCC(=NOC3CCNC3)CC12O` (single isomer, unassigned) [I-bv], for which the 50% inhibitory concentration (IC50) in data set [1] (setting [5]) came to 150 nM.
Still for that read-out and setting: the figure for `COCC1CC2C3CCC(=O)C3(C)CCC2C2(C)CCC(=NOC3CCNC3)CC12` (mixture of isomers) [I-as, (E,Z) 3-[3-(R)-Pyrrolidinyl]oxyimino-6α-methoxymethylandrostane-17-one hydrochloride] is 320 nM.
In data set [1] (Na+, K+-ATPase Inhibition IC50), `C[C@]12CC[C@H](OC(=O)C3CNC3)CC1C(=O)C[C@@H]1[C@@H]2CC[C@]2(C)C(=O)CC[C@@H]12` (stereo partly drawn) [I-cx, 3β-(3-Azetidincarbonyloxy)androstane-6,17-dione hydrochloride] registered an IC50 of 4200 nM.
Take `C[C@]12CC/C(=N\OC3CCNC3)CC1C(=O)C[C@@H]1[C@@H]2CC[C@]2(C)C(=O)CC[C@@H]12` (mixture of isomers) [I-ac, (E) 3-[3-(RS)-Pyrrolidinyl]oxyiminoandrostane-6,17-dione hydrochloride]: half-maximal inhibition in data set [1] (Na+, K+-ATPase Inhibition IC50) (IC50) required 110 nM.
Still for that read-out and setting: in the case of `C=C1CC2C3CCC(=O)C3(C)CCC2C2(C)CCC(=NOC3CCNC3)CC12O` (racemic) [I-bk, (E,Z) 3-[3′-(S)-Pyrrolidinyl]oxyimino-5α-hydroxy-6-methylene-androstane-17-one fumarate] it was 480 nM.
`CON=C1CC2C3CCC(=O)C3(C)CCC2C2(C)CCC(=NOC3CCN(C)C3)CC12O` (single isomer, unassigned) [I-ca]: in data set [1] (setting [5]), the IC50 worked out at 6000 nM.
On to `C=CCON=C1CC2CC(=NOC3CCNC3)CCC2(C)C2CCC3(C)C(=O)CCC3C12` (mixture of isomers) [I-cf, (E,Z) 3-[3′-(R)-Pyrrolidinyl]oxyimino-7-(E)-allyloxyiminoandrostane-17-one fumarate], for which the IC50 in data set [1] (setting [5]) worked out at 4000 nM.
The compound `CC12CCC3C(C(=O)CC4CC(=NOC5CCNC5)CCC43C)C1CCC2=O` (single isomer, unassigned) [I-cc] displayed an IC50 in data set [1] (Na+, K+-ATPase Inhibition IC50) of 570 nM.
In the case of `C[C@@H]1CC2CC(=NO[C@@H]3CCNC3)CC[C@]2(C)[C@H]2CC[C@]3(C)C(=O)CC[C@H]3[C@H]12` (stereo partly drawn) [I-ck, (E,Z) 3-[3′-(R)-Pyrrolidinyl]oxyimino-7α-methylandrostane-17-one hydrochloride], in data set [1] (setting [2]), the IC50 stood at 210 nM.
The compound `C[C@H]1C[C@@H]2[C@H](CC[C@]3(C)C(=O)CC[C@@H]23)[C@@]2(C)CC/C(=N/O[C@@H]3CCNC3)CC12` (stereo partly drawn) [I-ax, (Z) 3-[3-(R)-Pyrrolidinyl]oxyimino-6α-methylandrostane-17-one hydrochloride] gave an IC50 in data set [1] (Na+, K+-ATPase Inhibition IC50) of 260 nM.
In turn, `CC12CCC3C(CC(=O)C4CC(OC(=O)C5CCNC5)CCC43C)C1CCC2=O` (mixture of isomers) [I-cy, 3β-(3(R,S)-Pirrolidinylcarbonyloxy)androstane-6,17-dione fumarate] returned an IC50 in data set [1] (Na+, K+-ATPase Inhibition IC50) of 4200 nM.
The compound `C[C@]12CC/C(=N/O[C@H]3CCNC3)CC1[C@@H](CO)C(=O)[C@@H]1[C@@H]2CC[C@]2(C)C(=O)CC[C@@H]12` (stereo partly drawn) [I-di, (Z)-3-[3-(S)-Pyrrolidinyl)oxyimino]-6α-hydroxymethylandrostane-7,17-dione fumarate] had an IC50 in data set [1] (Na+, K+-ATPase Inhibition IC50) of 210 nM.
Consider `CC12CCC3C(CC(=NO)C4CC(=NOC5CCNC5)CCC43C)C1CCC2=O` (mixture of isomers) [I-av, (E,Z) 3-[3-(R)-Pyrrolidinyl]oxyimino-6(E)-hydroxyiminoandrostan-17-one hydrochloride], for which, in the data set on anesthetized guinea-pig (setting [3]), the Emax came out at 144%, the ED80 amounted to 1.49 µmol/kg, the ED (max) stood at 4.3 µmol/kg and the Dead/treated is 0/3. Moreover, in the data set on anesthetized guinea-pig (anesthetized guinea-pig), the “% decrease from Emax after 20 min from the end of the infusion” value worked out at 100%. The compound also yielded a Maximum dose infused with anesthetized guinea-pig (setting [4]) of 6.3.
Turning to “3β-(2(R,S)-Morpholinylcarbonyloxy)androstane-6,7-dione fumarate [I-cz]”, the IC50 in data set [1] (setting [2]) is 12000 nM.
In the case of `CC12CCC3C(C(O)C(CO)C4CC(=NOC5CCNC5)CCC43C)C1CCC2=O` (single isomer, unassigned) [I-dl, hydrochloride], the midpoint of inhibition in data set [1] (Na+, K+-ATPase Inhibition IC50), the IC50, lay at 170 nM.
With `CO/N=C1\C[C@H]2[C@@H]3CCC(=O)[C@@]3(C)CC[C@@H]2[C@@]2(C)CC/C(=N/O[C@H]3CCN(C)C3)C[C@]12O` [I-bx, (Z) 3-[3′-(S)-(1-Methyl)pyrrolidinyl]oxyimino)-5α-hydroxy-6-(E)-methoxyiminoandrostane-17-one fumarate], the IC50 in data set [1] (setting [5]) was 96000 nM.
Take `CC12CCC3C(CC(O[N+](=O)[O-])C4CC(=NOC5CCNC5)CCC43C)C1CCC2=O` (mixture of isomers) [I-ap, (E,Z) 3-[3-(R)-Pyrrolidinyl]oxyimino-17-oxoandrostane-6α-yl nitrate hydrochloride]: in data set [1] (setting [5]), the IC50 worked out at 380 nM.
For the compound `COCC1CC2CC(=NOC3CCNC3)CCC2(C)C2CCC3(C)C(=O)CCC3C12` (mixture of isomers) [I-dm, (E,Z) 3-[3-(R)-Pyrrolidinyl]oxyimino-7α-methoxymethylandrostane-17-one hydrochloride], the IC50 in data set [1] (setting [5]) was 8100 nM.
Same read-out and setting: in the case of `CON=C1CC2CC(=NOC3CCNC3)CCC2(C)C2CCC3(C)C(=O)CCC3C12` (mixture of isomers) [I-ce, (E,Z) 3-[3-(R)-Pyrrolidinyl]oxyimino-7(E)-methoxyiminoandrostan-17-one fumarate] it was 3000 nM.
Take `CC12CCC3C(CC(=O)C4CC(=NOCC5CCCN5)CCC43C)C1CCC2=O` (mixture of isomers) [I-ai, hydrochloride]: the IC50 in data set [1] (Na+, K+-ATPase Inhibition IC50) was 11000 nM.
With `CC12CCC3C(C(NC=O)CC4CC(=NOC5CCNC5)CCC43C)C1CCC2=O` (mixture of isomers) [I-cp, (E,Z) 3-[3′-(R)-Pyrrolidinyl]oxyimino-7α-formamidoandrostane-17-one hydrochloride], the IC50 in data set [1] (setting [5]) was 4600 nM.
In the case of `CO/N=C1\C[C@H]2[C@@H]3CCC(=O)[C@@]3(C)CC[C@@H]2[C@@]2(C)CC/C(=N/O[C@@H]3CCN(C)C3)C[C@]12O` [I-bz, (Z) 3-[3′-(R)-(1-Methyl)pyrrolidinyl]oxyimino)-5α-hydroxy-6-(E)-methoxyiminoandrostane-17-one fumarate], the IC50 in data set [1] (setting [5]) stood at 94000 nM.
On to `CC1CC2CC(=NOC3CCNC3)CCC2(C)C2CCC3(C)C(=O)CCC3C12` [I-cm, (E) 3-[3′-(R)-Pyrrolidinyl]oxyimino-7β-methylandrostane-17-one hydrochloride], for which the IC50 in data set [1] (Na+, K+-ATPase Inhibition IC50) stood at 140 nM.
As to `C[C@]12CCC(=NO[C@H]3CCNC3)C=C1/C(=N/O)C[C@@H]1[C@@H]2CC[C@]2(C)C(=O)CC[C@@H]12` [I-dv, (E,Z) 3-[3-(S)-Pyrrolidinyl]oxyimino-6-(E)-hydroxyiminoandrost-4-ene-17-one fumarate], the IC50 in data set [1] (setting [2]) turned out to be 220 nM.
Regarding `C[C@]12CC[C@H]3[C@@H](C/C(=N\O)[C@@]4(O)CC(=NO[C@H]5CCNC5)CC[C@]34C)[C@@H]1CCC2=O` (mixture of isomers) [I-bq, (E,Z) 3-[3-(S)-Pyrrolidinyl]oxyimino-5α-hydroxy-6-(E)-hydroxyiminoandrostane-17-one hydrochloride], in the data set with anesthetized guinea-pig (setting [3]), the Emax stood at 380%, the ED80 is 0.59 µmol/kg and the ED (max) was 3.72 µmol/kg. In the data set with anesthetized guinea-pig (setting [4]), this compound showed a Maximum dose infused of 18.7.
